# Numbers after ± are expanded uncertainties.
# Assay: activity coefficient (dimensionless); of the first substance listed, at infinite dilution; xn = mol fraction of the nth substance listed
# Conditions: Liquid, Chromatography, x1 = 0
smiles,measurement,setting,value
CCOC(C)(C)C [2-ethoxy-2-methylpropane] + CCCCCCn1cc[n+](C)c1.N#C[B-](C#N)(C#N)C#N,activity coefficient,318.15 K,3.51 ± 0.16
same,activity coefficient,328.15 K,3.53 ± 0.16
same,activity coefficient,338.15 K,3.53 ± 0.16
same,activity coefficient,348.15 K,3.58 ± 0.16
same,activity coefficient,358.15 K,3.61 ± 0.16
same,activity coefficient,368.15 K,3.66 ± 0.17
C#CCCCCCC [1-octyne] + CCCCCCn1cc[n+](C)c1.N#C[B-](C#N)(C#N)C#N,activity coefficient,318.15 K,3.99 ± 0.18
same,activity coefficient,328.15 K,3.97 ± 0.18
same,activity coefficient,338.15 K,3.96 ± 0.18
same,activity coefficient,348.15 K,3.98 ± 0.18
same,activity coefficient,358.15 K,3.97 ± 0.18
same,activity coefficient,368.15 K,3.99 ± 0.18
"Cc1cccc(C)c1 [1,3-dimethylbenzene] + CCCCCCn1cc[n+](C)c1.N#C[B-](C#N)(C#N)C#N",activity coefficient,318.15 K,1.36 ± 0.05
same,activity coefficient,328.15 K,1.39 ± 0.05
same,activity coefficient,338.15 K,1.42 ± 0.05
same,activity coefficient,348.15 K,1.44 ± 0.05
same,activity coefficient,358.15 K,1.47 ± 0.06
same,activity coefficient,368.15 K,1.5 ± 0.06
CCC(=O)CC [pentan-3-one] + CCCCCCn1cc[n+](C)c1.N#C[B-](C#N)(C#N)C#N,activity coefficient,318.15 K,0.478 ± 0.033
same,activity coefficient,328.15 K,0.498 ± 0.033
same,activity coefficient,338.15 K,0.518 ± 0.032
same,activity coefficient,348.15 K,0.536 ± 0.032
same,activity coefficient,358.15 K,0.551 ± 0.032
same,activity coefficient,368.15 K,0.569 ± 0.031
"Cc1ccc(C)cc1 [1,4-dimethylbenzene] + CCCCCCn1cc[n+](C)c1.N#C[B-](C#N)(C#N)C#N",activity coefficient,318.15 K,1.33 ± 0.05
same,activity coefficient,328.15 K,1.36 ± 0.05
same,activity coefficient,338.15 K,1.39 ± 0.05
same,activity coefficient,348.15 K,1.42 ± 0.05
same,activity coefficient,358.15 K,1.44 ± 0.05
same,activity coefficient,368.15 K,1.47 ± 0.06
c1ccsc1 [thiophene] + CCCCCCn1cc[n+](C)c1.N#C[B-](C#N)(C#N)C#N,activity coefficient,318.15 K,0.636 ± 0.03
same,activity coefficient,328.15 K,0.647 ± 0.03
same,activity coefficient,338.15 K,0.657 ± 0.03
same,activity coefficient,348.15 K,0.666 ± 0.03
same,activity coefficient,358.15 K,0.678 ± 0.03
same,activity coefficient,368.15 K,0.689 ± 0.03
C=Cc1ccccc1 [styrene] + CCCCCCn1cc[n+](C)c1.N#C[B-](C#N)(C#N)C#N,activity coefficient,328.15 K,0.83 ± 0.03
same,activity coefficient,338.15 K,0.856 ± 0.027
same,activity coefficient,348.15 K,0.878 ± 0.027
same,activity coefficient,358.15 K,0.902 ± 0.026
same,activity coefficient,368.15 K,0.926 ± 0.026
CC(=O)O [acetic acid] + CCCCCCn1cc[n+](C)c1.N#C[B-](C#N)(C#N)C#N,activity coefficient,328.15 K,0.285 ± 0.036
same,activity coefficient,338.15 K,0.298 ± 0.036
same,activity coefficient,348.15 K,0.311 ± 0.035
same,activity coefficient,358.15 K,0.323 ± 0.035
same,activity coefficient,368.15 K,0.335 ± 0.035
Cc1ccccc1 [toluene] + CCCCCCn1cc[n+](C)c1.N#C[B-](C#N)(C#N)C#N,activity coefficient,318.15 K,0.975 ± 0.025
same,activity coefficient,328.15 K,0.993 ± 0.025
same,activity coefficient,338.15 K,1.02 ± 0.03
same,activity coefficient,348.15 K,1.04 ± 0.03
same,activity coefficient,358.15 K,1.06 ± 0.03
same,activity coefficient,368.15 K,1.08 ± 0.03
c1ccncc1 [pyridine] + CCCCCCn1cc[n+](C)c1.N#C[B-](C#N)(C#N)C#N,activity coefficient,318.15 K,0.38 ± 0.034
same,activity coefficient,328.15 K,0.389 ± 0.034
same,activity coefficient,338.15 K,0.4 ± 0.034
same,activity coefficient,348.15 K,0.408 ± 0.034
same,activity coefficient,358.15 K,0.418 ± 0.034
same,activity coefficient,368.15 K,0.429 ± 0.034
"CCC(C)(C)C [2,2-dimethylbutane] + CCCCCCn1cc[n+](C)c1.N#C[B-](C#N)(C#N)C#N",activity coefficient,318.15 K,10.5 ± 0.5
same,activity coefficient,328.15 K,9.96 ± 0.46
same,activity coefficient,338.15 K,9.52 ± 0.44
same,activity coefficient,348.15 K,9.24 ± 0.42
same,activity coefficient,358.15 K,8.92 ± 0.41
same,activity coefficient,368.15 K,8.69 ± 0.4
CCCC(=O)OC [methyl butanoate] + CCCCCCn1cc[n+](C)c1.N#C[B-](C#N)(C#N)C#N,activity coefficient,318.15 K,0.664 ± 0.03
same,activity coefficient,328.15 K,0.684 ± 0.03
same,activity coefficient,338.15 K,0.701 ± 0.029
same,activity coefficient,348.15 K,0.715 ± 0.029
same,activity coefficient,358.15 K,0.733 ± 0.029
same,activity coefficient,368.15 K,0.751 ± 0.029
CCCCCCCCCC [decane] + CCCCCCn1cc[n+](C)c1.N#C[B-](C#N)(C#N)C#N,activity coefficient,318.15 K,43.6 ± 2
same,activity coefficient,328.15 K,40 ± 1.9
same,activity coefficient,338.15 K,36.4 ± 1.7
same,activity coefficient,348.15 K,33.8 ± 1.6
same,activity coefficient,358.15 K,31.3 ± 1.5
same,activity coefficient,368.15 K,29.3 ± 1.4
C1=CCCCC1 [cyclohexene] + CCCCCCn1cc[n+](C)c1.N#C[B-](C#N)(C#N)C#N,activity coefficient,318.15 K,3.48 ± 0.16
same,activity coefficient,328.15 K,3.38 ± 0.15
same,activity coefficient,338.15 K,3.27 ± 0.15
same,activity coefficient,348.15 K,3.25 ± 0.15
same,activity coefficient,358.15 K,3.17 ± 0.14
same,activity coefficient,368.15 K,3.14 ± 0.14
CC(C)CO [2-methyl-1-propanol] + CCCCCCn1cc[n+](C)c1.N#C[B-](C#N)(C#N)C#N,activity coefficient,318.15 K,1.44 ± 0.05
same,activity coefficient,328.15 K,1.31 ± 0.05
same,activity coefficient,338.15 K,1.2 ± 0.1
same,activity coefficient,348.15 K,1.11 ± 0.03
same,activity coefficient,358.15 K,1.04 ± 0.03
same,activity coefficient,368.15 K,0.977 ± 0.025
CC(C)=O [acetone] + CCCCCCn1cc[n+](C)c1.N#C[B-](C#N)(C#N)C#N,activity coefficient,318.15 K,0.335 ± 0.035
same,activity coefficient,328.15 K,0.344 ± 0.035
same,activity coefficient,338.15 K,0.354 ± 0.035
same,activity coefficient,348.15 K,0.363 ± 0.035
same,activity coefficient,358.15 K,0.372 ± 0.034
same,activity coefficient,368.15 K,0.381 ± 0.034
CO [methanol] + CCCCCCn1cc[n+](C)c1.N#C[B-](C#N)(C#N)C#N,activity coefficient,318.15 K,0.837 ± 0.027
same,activity coefficient,328.15 K,0.786 ± 0.028
same,activity coefficient,338.15 K,0.745 ± 0.029
same,activity coefficient,348.15 K,0.704 ± 0.029
same,activity coefficient,358.15 K,0.668 ± 0.03
same,activity coefficient,368.15 K,0.633 ± 0.031
CCCCO [butan-1-ol] + CCCCCCn1cc[n+](C)c1.N#C[B-](C#N)(C#N)C#N,activity coefficient,318.15 K,1.43 ± 0.05
same,activity coefficient,328.15 K,1.32 ± 0.05
same,activity coefficient,338.15 K,1.22 ± 0.04
same,activity coefficient,348.15 K,1.14 ± 0.03
same,activity coefficient,358.15 K,1.07 ± 0.03
same,activity coefficient,368.15 K,1.01 ± 0.03

# — the NIST ThermoML archive (doi:10.1016/j.jct.2011.11.025)
